Where a SMILES comes first, the peptide text is derived from it. The star is where a group is joined. Octanoyl = CCCCCCCC(=O)*; Boc = CC(C)(C)OC(=O)*
Test system: SARS-CoV-2
Experiment: Antiviral activity against SARS-CoV-2 Wuhan 5-2N variant infected in African green monkey Vero E6 cells measured for 3 days by WST-8 assay
Type: functional, organism-based
Conditions: Severe acute respiratory syndrome coronavirus 2, Wuhan 5-2N, Vero C1008, 72 h

| Structure (SMILES) | EC50 |
| --- | --- |
| CC(=O)NCC(=O)N[C@@H](Cc1ccccc1)C(=O)N[C@H](C=O)Cc1c[nH]cn1 (Ac-Gly-Phe-His-aldehyde) | 66.1 µM |
| CC(C)(C)OC(=O)NCC(=O)N[C@@H](Cc1ccccc1)C(=O)N[C@H](C=O)Cc1c[nH]cn1 (Boc-Gly-Phe-His-aldehyde) | 5 µM |
| CCCCCCCC(=O)NCC(=O)N[C@@H](Cc1ccccc1)C(=O)N[C@H](C=O)Cc1c[nH]cn1 (Octanoyl-Gly-Phe-His-aldehyde) | 5 µM |

Source: ChEMBL document CHEMBL6120938, “Covalent small-molecule inhibitors of SARS-CoV-2 Mpro: Insights into their design, classification, biological activity, and binding interactions” (Eur J Med Chem, 2024)
